Data from publication PMC12257413, “Discovery of a Novel sp^3‑Rich M1 Positive Allosteric Modulators (PAMs) Chemotype via Scaffold Hopping” (ACS Medicinal Chemistry Letters, 2025).
≈ marks a conversion by molar mass, not a printed value. Where two headings read alike, the source gives them in different places.

Columns and labels:
Aqueous solubility = assay type: physicochemical; conditions: aqueous solution, aqueous buffer
[1] = Plasma protein binding by equilibrium dialysis, rat plasma; assay type: in vitro ADME; conditions: fraction unbound in rat plasma
Experimental: for 2 seconds (excitation, 480 nm; emission, 530 nm), first add occurred by adding 20 µL of test compound to the cells, and the response was measured for 140 seconds. This is followed by second add; 10 µL (5X) of an EC20 concentration of ACh agonist was added to the cells, and the response of the cells was measured for 125 seconds. Immediately, the third add occurred by adding 12 ul assay buffer or 5X of an EC max concentration of ACh and the response of the cells was measured for 90 seconds. Assay buffer was added to the wells that incubated with compounds followed by EC20 concentration of ACh. […] Calcium fluorescence was recorded as fold over basal fluorescence and raw data were normalized to the maximal response to ACh agonist. Potency (EC50) and maximum response (% ACh Max) for compounds was determined using a four -parameter logist ical equation using GraphPad Prism (La Jolla, CA) or the Dotmatics software platform ( Woburn, MA) : […]
The protein binding of each compound was determined in plasma via equilibrium dialysis employing rapid equilibrium dialysis (RED) plates (ThermoFisher Scientific, Rochester, NY). […]
same manner as the plasma samples in the previously described plasma protein binding assay. Fraction unbound for both plasma and brain samples was determined using Equation 4. […]

[2] = Brain homogenate binding by equilibrium dialysis; assay type: in vitro ADME; conditions: fraction unbound in rat brain homogenate
Experimental: A similar approach was used to determine the degree of brain homogenate binding, which employed the same methodology and procedure with the following modifications: 1) a final compound concentration of 1 μM was used, 2) naïve rat brains were homogenized in DPBS (1:3 composition of brain: DPBS, w/w) using a Mini-Bead Beater™ machine in order to obtain brain homogenate, which was then treated in the same manner as the plasma samples in the previously described plasma protein binding assay. […]
same manner as the plasma samples in the previously described plasma protein binding assay. Fraction unbound for both plasma and brain samples was determined using Equation 4.
Equation 4 Determination of fraction unbound in plasma.
The diluted fraction unbound (fu2) in brain was calculated in the same manner by using brain homogenate rather than plasma. Undiluted fraction unbound for the brain was calculated using Equation 5 […]
Equation 5 Determination of fraction unbound in brain. […]
Human or rat hepatic microsomes (0.5 mg/mL) and 1 µM test compound were incubated in 100 mM potassium phosphate pH 7.4 buffer with 3 mM MgCl 2 at 37 °C with constant shaking. […] The in vitro half-life (1/2, min, Eq. 1), intrinsic clearance (CL int, mL/min/kg, Eq. 2), and subsequent predicted hepatic clearance (CLhep, mL/min/kg, Eq. 3) was determined employing the following equations: […]

[3] = Rat in vivo PK (PK/PBL cassette); conditions: for AUC / MRT / half-life / Vd: plasma; for clearance: plasma clearance, read-out: CLp; for Vd: read-out: Vss
Description: 4 Detailed In Vitro and In Vivo Profiles for Selected M1 PAMs ^a | column: Property; 17k; 17g

[4] = pH 2.2, read-out: Solubility pH = 2.2
[5] = pH 6.8, read-out: Solubility pH = 6.8

solubility (Aqueous solubility; [4]) [µM]	solubility (Aqueous solubility; [5]) [µM]	Rat fuplasma [1]	Rat fubrain [2]	AUC [3] [ng·h/mL]	MRT [3] [min]	half-life [3] [min]	clearance [3] [mL/min/kg]	Vd [3] [L/kg]	SMILES
84.6 (≈ 38 µg/mL)	80.7 (≈ 36.3 µg/mL)	0.08	0.08	160	76.8	72.6	20.8	1.59	Cn1cc(-c2ccc(Cc3cc(C(=O)N[C@H]4CCOC[C@@H]4O)nn3C3CCCC3)cc2)cn1 [17g]
10.8 (≈ 4.83 µg/mL)	< 1.12	0.03	0.01	74.4	39	37.8	56	2.2	Cn1cc(-c2ccc(Cc3cc(C(=O)N[C@H]4CCCC[C@@H]4O)nn3C3CCCC3)cc2)cn1 [17k]
